Measurements reported in ChEMBL document CHEMBL5727401, “Mixed lineage kinase inhibitors for HIV/AIDS therapies” (2019).

Target: Mitogen-activated protein kinase kinase kinase 11 (Homo sapiens, UniProt Q16584)
Assay: Radiometric Filter Plate MLK3 Assay: 200 ng (130 nM) MLK3 (Dundee, DU8313) was incubated with 1 μM inactive MKK7b (Dundee, DU703) in the presence of 2 μM cold ATP (Km) and 0.5 μCi/assay 33P ATP and appropriate concentrations of compounds. After a twenty minute incubation, the reactions were washed through filter plates and read on a scintillation counter.

Chain of Mitogen-activated protein kinase kinase kinase 11 (Q16584 whole entry): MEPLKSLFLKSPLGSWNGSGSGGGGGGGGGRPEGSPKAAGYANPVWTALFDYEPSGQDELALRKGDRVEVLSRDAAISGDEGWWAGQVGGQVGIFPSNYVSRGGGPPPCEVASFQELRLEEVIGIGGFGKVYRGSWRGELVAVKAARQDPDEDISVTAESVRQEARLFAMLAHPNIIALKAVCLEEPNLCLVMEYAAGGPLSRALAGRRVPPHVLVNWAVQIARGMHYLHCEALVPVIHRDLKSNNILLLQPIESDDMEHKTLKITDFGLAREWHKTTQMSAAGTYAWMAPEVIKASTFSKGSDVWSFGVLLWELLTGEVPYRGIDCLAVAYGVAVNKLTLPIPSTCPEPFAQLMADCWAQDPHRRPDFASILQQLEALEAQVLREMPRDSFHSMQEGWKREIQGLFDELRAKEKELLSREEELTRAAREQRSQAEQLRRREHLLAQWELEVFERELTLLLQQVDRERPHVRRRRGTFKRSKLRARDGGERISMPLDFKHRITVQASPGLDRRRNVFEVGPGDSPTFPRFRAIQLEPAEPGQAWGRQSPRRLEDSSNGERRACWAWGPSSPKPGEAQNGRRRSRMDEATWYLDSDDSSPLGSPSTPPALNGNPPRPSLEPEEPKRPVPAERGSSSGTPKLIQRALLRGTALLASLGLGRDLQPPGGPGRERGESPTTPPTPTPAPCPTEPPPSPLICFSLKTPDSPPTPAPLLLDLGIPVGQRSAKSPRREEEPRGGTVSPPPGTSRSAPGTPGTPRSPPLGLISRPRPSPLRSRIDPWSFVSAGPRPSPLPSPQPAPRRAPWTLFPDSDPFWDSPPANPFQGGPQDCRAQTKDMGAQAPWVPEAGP

| SMILES | IC50 [nM] |
| --- | --- |
| CN1CCN(Cc2ccc(-c3cnc4[nH]cc(-c5cnc6[nH]ccc6c5)c4c3)cc2)CC1 | < 100 |
| c1cn(Cc2ccc(-c3cnc4[nH]cc(-c5ccc6[nH]ccc6c5)c4c3)cc2)cn1 | < 100 |
